Laboratory results: US20040038861A1, “Methods and compositions for normalizing lipid levels in mammalian tissues” (priority 2001, published 2004)

What was measured:
soleus muscle [1] = assay: Lipid metabolites (free fatty acid, glycerol, triglyceride; enzymatic analysis) in isolated soleus muscle from normally fed rats; format: cell-based, rat
soleus muscle [2] = assay: Triglyceride and free fatty acid content (enzymatic) in isolated soleus muscle of rats fed high fat diets; format: cell-based, rat; settings: 1 h
Source text: (§1) High-fatted rats. Groups of male Wistar rats (n=21/diet) were ad libitum fed high-fat diets containing standard rat chow to which 40% (w/w) of lard, corn oil or olive oil had been added, from the time of weaning (age=21 d) until sacrifice at 50 d. Triacylglycerol from lard contains predominantly saturated fatty acids; that from corn oil […], see Table 4.
(§2) Soleus muscle tissue isolation and incuhation.Immersion and incubation media was Krebs-Henseleit buffer (KHB) containing 118.5 mM NaCl, 4.75 mM KCl, 1.18 mM MgSO4.7H2O and KH2PO4, 24.8 mM NaHCO3, 2.54 mM CaCl2 and 10 mM d-glucose. The medium was gassed continuously with 95% O2/5% CO2. […] Soleus muscles of both legs were excised keeping the tissue immersed in KHB; muscles were separated into two equal parts and transferred to the incubation flasks. At the completion of incubation the muscles were snap frozen in liquid nitrogen, and then trimmed of connective tissue and all visible fat. The muscle strips were stored at −80° C. until analysis.
(§3) Lipid extraction and chromatographic separation of fatty acids. Total lipids were extracted from muscle strips by a modified version of the method of Bligh and Dyer (Gorski et al., 1988, Mol & Cell Biochem 178:113-118; 1. Bligh et al., 1959, Can J Biochem Physiol 37: 911-917). Muscles were homogenised (Soniprep 150) in 0.4 ml of deionised water. Solvent volumes used herein were varied according to the water content of the muscle (ie muscle weight) as described (Bligh & Dyer, supra). 2 vols of methanol containing 0.005% butylated hydroxy toluene (BHT) and 1 vol chloroform were added to the muscle suspension. Homogenates were vortexed at maximum speed for 2 minutes and centrifuged at 2,500 g for 4 minutes. Supernatants were recovered and pellets re-extracted with 2 vol methanol, 1 vol chloroform and 0.8 vol 0.2 N HCl. Residues were vortexed for 2 min then centrifuged at 3,500 g for 3 min. After centrifugation the combined supernatants were diluted with 2v each of milli Q water and chloroform and the phases separated by centrifugation at 3,500 g for 4 minutes. The lower chloroform phase was recovered, neutralised by dropwise addition of 0.2 N methanolic NH4OH and evaporated down in a stream of N2. The samples were stored at −80° C. until required.
(§4) Aminopropyl phase (250 mg) was packed into 16 ml teflon columns with teflon frits placed at the top and bottom of the bonded phase. Columns were placed in a Vac Elut apparatus and washed twice with 2 ml portions of hexane (Prasad et al., 1988, J Chromato 428: 221-228; Kaluzny et al., 1985, J Lipid Res 26: 135-140). The dry lipid samples were taken up in two 0.150 ml portions of chloroform and applied to the column under atmospheric pressure. After adsorption the neutral lipids were eluted with 4 ml of chloroform-2-propanol (2:1, v/v) and the free fatty acids eluted with 4 ml of 2% acetic acid in diethyl ether. The solvent containing the free fatty acids was dried under a stream of N2.
Determination of tissue free fatty acids and triacylglycerol concentration by enzymatic analyses. Free fatty acids were separated from total lipid, evaporated under a stream of N2 and stored at −80° C. until analysis. Samples were dissolved in 50 μl of warm ethanol (35-40° C.), and 0.625 ml of a Triton X-100 (6% w/v) solution was added once the ethanol reached room temperature. The solution was stirred for 30 min, then made up to 0.825 ml with the Triton solution. Free fatty acids were quantified using a commercial method (Boehringer Mannheim) adapted for micro analyses (Cobas Mira, Roche Diagnostics), with palmitic acid standards. Triacyl glycerol levels were quantified in the total lipid fraction (Pointe Scientific) with a glycerol standard.
Total lipid was extracted and quantitated. Results are shown in FIGS. 18A NEFA and 18B triglyceride.

soleus muscle [3] = assay: Individual free fatty acids by gas chromatography in soleus muscle of rats fed high fat diets; parameters: species or system rat; settings: 1 hour, GC
Source text: as §1, §2, §3, §4
Gas-liquid chromatographic analysis. Dry free fatty acid residues were processed for derivatisation of methyl esters by the boron trifluoride-methanol method (Prasad, supra). 1 ml of boron trifluoride in methanol (BF3) was added to each sample, the sample vials were heated at 70° C. for 5 minutes, shaken vigorously, and baked for a further 10 minutes. Once the samples reached room temperature 0.5 ml milli Q water was added, the sample vials shaken, 0.1 ml heptane was added and the sample shaken again. 0.05 ml of the top heptane layer was removed for GLC analysis. A Model HP5890 Plus Series 2 (Hewlett-Packard) gas chromatograph equipped with a DB-225 column was used to separate the methyl esters of the fatty acids and a Model HP 5890 GC with a Model HP 5973 MS (Hewlett-Packard) GC/MS used to confirm the identity of individual free fatty acids. […]

[4] = rats fed diet high in olive oil

Substance: Rat amylin
- soleus muscle free fatty acid content, agonist alone (soleus muscle [1]; 100 nM, 1 h, normal-fed rats (FIG. 3A, 3B)): 216 ± 26 nmol/g
- triacylglycerol (triglyceride) content (soleus muscle [1]; soleus, normally fed rats, 60-min, 100 nM amylin or CGRP-1, 4.4 μM norepinephrine, control 1.17±0.15, not significant): 1.7 ± 0.26 µmol/g
- intramuscular free fatty acid content (soleus muscle [1]; soleus, normally fed rats, 1 h, 100 nM amylin or CGRP-1, 4.4 μM norepinephrine, 23.7 nM insulin, control 78±21): 216 ± 22 nmol/g
- intramuscular glycerol content (soleus muscle [1]; soleus, normally fed rats, 1 h, 100 nM amylin or CGRP-1, 4.4 μM norepinephrine, control 0.07±0.007): 0.03 ± 0.004 nmol/g
- soleus muscle triglyceride content (soleus muscle [2]; diet with 40% added lard, 100 nM amylin or CGRP-1, 4.4 μM norepinephrine, control 1.14±0.16): 0.71 ± 0.07 µmol/g
- soleus muscle free fatty acid content (soleus muscle [2]; diet with 40% added lard, 100 nM amylin or CGRP-1, 4.4 μM norepinephrine, control 43±8): 102 ± 12 nmol/g
- soleus muscle triglyceride content (soleus muscle [2]; diet with 40% corn oil, 100 nM, control 0.89±0.06 μmol/g): 0.49±0.07 [mol/g
- soleus muscle free fatty acid content (soleus muscle [2]; diet with 40% corn oil, 100 nM, control 35±4): 75 ± 9 nmol/g
- soleus muscle triglyceride content (soleus muscle [2]; diet with 40% olive oil, 100 nM, control 0.83±0.1): 0.44 ± 0.4 µmol/g
- soleus muscle free fatty acid content (soleus muscle [2]; diet with 40% olive oil, 100 nM, control 15±3): 85 ± 12 nmol/g
- free fatty acid adrenic C22:4 (soleus muscle [3]; rats fed diet high in corn oil): 0.03 ± 0.003 nmol/g wwt
- free fatty acid arachidic C20:0 (soleus muscle [3]; rats fed diet high in corn oil): 0.04 ± 0.002 nmol/g wwt
- free fatty acid arachidonic C20:4 (soleus muscle [3]; rats fed diet high in corn oil): 0.04 ± 0.002 nmol/g wwt
- free fatty acid cervonic C22:6 (soleus muscle [3]; rats fed diet high in corn oil): 0.03 ± 0.002 nmol/g wwt
- free fatty acid linoleic C18:2 (soleus muscle [3]; rats fed diet high in corn oil): 0.18 ± 0.02 nmol/g wwt
- free fatty acid linolenic C18:3 (soleus muscle [3]; rats fed diet high in corn oil): 0.16 ± 0.02 nmol/g wwt
- free fatty acid margaric C17:0 (soleus muscle [3]; rats fed diet high in corn oil): 0.02 ± 0.0009 nmol/g wwt
- free fatty acid myristic C14:0 (soleus muscle [3]; rats fed diet high in corn oil): 0.04 ± 0.006 nmol/g wwt
- free fatty acid oleic C18:1 (soleus muscle [3]; rats fed diet high in corn oil): 0.13 ± 0.01 nmol/g wwt
- free fatty acid palmitic C16:0 (soleus muscle [3]; rats fed diet high in corn oil): 0.12 ± 0.01 nmol/g wwt
- free fatty acid palmitoleic (n-7) C16:1 (soleus muscle [3]; rats fed diet high in corn oil): 0.01 ± 0.0008 nmol/g wwt
- free fatty acid palmitoleic (n-9) C16:1 (soleus muscle [3]; rats fed diet high in corn oil): 0.19 ± 0.008 nmol/g wwt
- free fatty acid pentadecanoic C15:0 (soleus muscle [3]; rats fed diet high in corn oil): 0.05 ± 0.007 nmol/g wwt
- free fatty acid stearic C18:0 (soleus muscle [3]; rats fed diet high in corn oil): 0.14 ± 0.008 nmol/g wwt
- free fatty acid timnodonic C20:5 (soleus muscle [3]; rats fed diet high in corn oil): 0.05 ± 0.007 nmol/g wwt
- free fatty acid vaccenic C18:1 (soleus muscle [3]; rats fed diet high in corn oil): 0.02 ± 0.002 nmol/g wwt
- free fatty acid adrenic C22:4 (soleus muscle [3]; rats fed diet high in lard): 0.03 ± 0.005 nmol/g wwt
- free fatty acid arachidic C20:0 (soleus muscle [3]; rats fed diet high in lard): 0.06 ± 0.007 nmol/g wwt
- free fatty acid arachidonic C20:4 (soleus muscle [3]; rats fed diet high in lard): 0.01 ± 0.0005 nmol/g wwt
- free fatty acid cervonic C22:6 (soleus muscle [3]; rats fed diet high in lard): 0.02 ± 0.002 nmol/g wwt
- free fatty acid linoleic C18:2 (soleus muscle [3]; rats fed diet high in lard): 0.29 ± 0.004 nmol/g wwt
- free fatty acid margaric C17:0 (soleus muscle [3]; rats fed diet high in lard): 0.08 ± 0.01 nmol/g wwt
- free fatty acid myristic C14:0 (soleus muscle [3]; rats fed diet high in lard): 0.05 ± 0.01 nmol/g wwt
- free fatty acid oleic C18:1 (soleus muscle [3]; rats fed diet high in lard): 0.2 ± 0.01 nmol/g wwt
- free fatty acid palmitic C16:0 (soleus muscle [3]; rats fed diet high in lard): 0.24 ± 0.01 nmol/g wwt
- free fatty acid palmitoleic (n-7) C16:1 (soleus muscle [3]; rats fed diet high in lard): 0.02 ± 0.0009 nmol/g wwt
- free fatty acid palmitoleic (n-9) C16:1 (soleus muscle [3]; rats fed diet high in lard): 0.02 ± 0.003 nmol/g wwt
- free fatty acid pentadecanoic C15:0 (soleus muscle [3]; rats fed diet high in lard): 0.12 ± 0.03 nmol/g wwt
- free fatty acid stearic C18:0 (soleus muscle [3]; rats fed diet high in lard): 0.35 ± 0.04 nmol/g wwt
- free fatty acid timnodonic C20:5 (soleus muscle [3]; rats fed diet high in lard): 0.02 ± 0.002 nmol/g wwt
- free fatty acid vaccenic C18:1 (soleus muscle [3]; rats fed diet high in lard): 0.02 ± 0.002 nmol/g wwt
- free fatty acid adrenic C22:4 (soleus muscle [3]; [4]): 0.05 ± 0.008 nmol/g wwt
- free fatty acid arachidic C20:0 (soleus muscle [3]; [4]): 0.04 ± 0.005 nmol/g wwt
- free fatty acid arachidonic C20:4 (soleus muscle [3]; [4]): 0.03 ± 0.007 nmol/g wwt
- free fatty acid cervonic C22:6 (soleus muscle [3]; [4]): 0.08 ± 0.02 nmol/g wwt
- free fatty acid linoleic C18:2 (soleus muscle [3]; [4]): 0.02 ± 0.004 nmol/g wwt
- free fatty acid linolenic C18:3 (soleus muscle [3]; [4]): 0.01 ± 0.002 nmol/g wwt
- free fatty acid margaric C17:0 (soleus muscle [3]; [4]): 0.02 ± 0.003 nmol/g wwt
- free fatty acid myristic C14:0 (soleus muscle [3]; [4]): 0.01 ± 0.001 nmol/g wwt
- free fatty acid oleic C18:1 (soleus muscle [3]; [4]): 0.34 ± 0.04 nmol/g wwt
- free fatty acid palmitic C16:0 (soleus muscle [3]; [4]): 0.18 ± 0.01 nmol/g wwt
- free fatty acid palmitoleic (n-7) C16:1 (soleus muscle [3]; [4]): 0.02 ± 0.001 nmol/g wwt
- free fatty acid palmitoleic (n-9) C16:1 (soleus muscle [3]; [4]): 0.29 ± 0.03 nmol/g wwt
- free fatty acid pentadecanoic C15:0 (soleus muscle [3]; [4]): 0.04 ± 0.005 nmol/g wwt
- free fatty acid stearic C18:0 (soleus muscle [3]; [4]): 0.18 ± 0.02 nmol/g wwt
- free fatty acid timnodonic C20:5 (soleus muscle [3]; [4]): 0.02 ± 0.003 nmol/g wwt
- free fatty acid vaccenic C18:1 (soleus muscle [3]; [4]): 0.13 ± 0.02 nmol/g wwt
